Laboratory results reported in patent US20170156324A1 (Dow AgroSciences LLC, priority 2015, published 2017).
Several values for one entry are separate records, joined by “and”; a condition that tells them apart may be missing. Equal values may be shown once.

What was measured:
Type in all cases: in vivo
[1] = tested on: Matricaria inodora (scentless mayweed, MATIN); experiment: Field trial, post-emergence % visual weed control, MATIN; settings: 14DAA
Excerpt: (§1) Except for the trials utilizing the OD formulations, Actirob B was applied at 0.5 or 1.0 liters per hectare (L/ha), or Polyglycol 26-2 was applied at 0.5 to 1.0 L/ha in all respective single and tankmixture treatments being evaluated.
(§2) Trials were established as randomized complete blocks (RCBD) with three to four replicates. Individual treatments were 2-2.5 meters (m) wide and 6-20 m long. An untreated control was included in each trial. All trial sites had naturally occurring populations of weeds.
(§3) Herbicides were applied with backpack or bicycle sprayers using compressed air, nitrogen (N2) or carbon dioxide (CO2) as a propellant. All sprayers delivered a uniform spray pattern that provided thorough coverage of the foliage using a water volume of 150-300 L/ha. All herbicides were applied post-emergence in the spring to early-summer At the time of herbicide applications, winter wheat crops were at the six-leaf to three-tiller stage. Broadleaf and grass weeds were at a similar stage of growth at the time of herbicide application, typically from five leaf to 3 tiller depending on the weed species and time of year.
(§4) The treated plots and control plots were rated blind at various intervals after application. […] The control of the target weeds was visually assessed as percent control, compared to an untreated control plot. The assessments were based on a percent visual reduction in pest plant biomass and/or stand reduction of weed population.
(§5) The efficacy of all treatments was assessed at 13-22 days after application (DAA) for an early season rating, 23-39 DAA for a mid-season rating, and 41-84 DAA for a late-season rating. The data were statistically analyzed using various statistical methods, generally including a Tukey's HSD Factorial Analysis of Variance with a significance level of 5%.
(§6) Colby's equation was used to determine the herbicidal effects expected from the mixtures (Colby, S. R. Calculation of the synergistic and antagonistic response of herbicide combinations. Weeds 1967, 15, 20-22). A t-test (alpha=0.05) between Colby predictions and observed combinations was used to test for significant differences indicating synergy or antagonism using replicate data.
(§7) Expected=A+B+C−(AB+AC+BC)/100+(ABC)/10,000

[2] = tested on: Viola arvensis Murr. (field violet, VIOAR); experiment: Field trial, post-emergence % visual weed control, VIOAR
Excerpt: as §1, §2, §3, §4, §5, §6, §7

[3] = tested on: Lamium purpureum L. (purple deadnettle, LAMPU); experiment: Field trial, post-emergence % visual weed control, LAMPU
Excerpt: as §1, §2, §3, §4, §5, §6, §7

[4] = tested on: Matricaria recutita L. (wild chamomile, MATCH); experiment: Field trial, post-emergence % visual weed control, MATCH
Excerpt: as §1, §2, §3, §4, §5, §6, §7

[5] = tested on: Stellaria media (L.) Vill. (common chickweed, STEME); experiment: Field trial, post-emergence % visual weed control, STEME
Excerpt: as §1, §2, §3, §4, §5, §6, §7

[6] = tested on: Centaurea cyanus (cornflower, CENCY); experiment: Field trial, post-emergence % visual weed control, CENCY
Excerpt: as §1, §2, §3, §4, §5, §6, §7

[7] = tested on: Galium aparine L. (catchweed bedstraw, GALAP); experiment: Field trial, post-emergence % visual weed control, GALAP; settings: 28DAA
Excerpt: as §1, §2, §3, §4, §5
(§8) Colby's equation was used to determine the herbicidal effects expected from the mixtures (Colby, S. R. Calculation of the synergistic and antagonistic response of herbicide combinations. Weeds 1967, 15, 20-22). […]

[8] = tested on: Solanum nigrum L. (black nightshade, SOLNI); experiment: Field trial, post-emergence % visual weed control, SOLNI
Excerpt: as §1, §2, §3, §4, §5, §6, §7

[9] = tested on: Consolida regalis S. F. Gray (branching larkspur, CNSRE); experiment: Field trial, post-emergence % visual weed control, CNSRE
Excerpt: as §1, §2, §3, §4, §5, §6, §7

[10] = tested on: Agropyron repens L. (quackgrass, AGRRE); experiment: Field trial, post-emergence % visual weed control, AGRRE; settings: 14DAA
Excerpt: as §1, §2, §3, §4, §5, §8

[11] = tested on: Alopecurus myosuroides Huds. (blackgrass, ALOMY); experiment: Field trial, post-emergence % visual weed control, ALOMY; settings: 15DAA
Excerpt: as §1, §2, §3, §4, §5, §8

[12] = tested on: Apera spica-venti (L.) Beauv. (windgrass, APESV); experiment: Field trial, post-emergence % visual weed control, APESV
Excerpt: as §1, §2, §3, §4, §5, §6, §7

[13] = tested on: Echinochloa crus-galli (L.) P. Beauv. (barnyardgrass, ECHCG); experiment: Field trial, post-emergence % visual weed control, ECHCG
Excerpt: as §1, §2, §3, §4, §5, §6, §7

[14] = tested on: Lolium L. sp. (ryegrass, LOLSS); experiment: Field trial, post-emergence % visual weed control, LOLSS; settings: 14DAA, 18.75 g ai/ha
Excerpt: as §1, §2
(§9) Herbicides were applied with backpack or bicycle sprayers using compressed air, nitrogen (N2) or carbon dioxide (CO2) as a propellant. All sprayers delivered a uniform spray pattern that provided thorough coverage of the foliage using a water volume of 150-300 L/ha. […]
(§10) The treated plots and control plots were rated blind at various intervals after application. […] The control of the target weeds was visually assessed as percent control, compared to an untreated control plot. […]
as §5, with “5%. […]” for “5%.”

[15] = tested on: Lolium multiflorum Lam. (Italian ryegrass, LOLMU); experiment: Field trial, post-emergence % visual weed control, LOLMU; settings: 22.5 g ai/ha
Excerpt: as §1, §2, §9, §10
as §5, with “5%. […]” for “5%.”

[16] = tested on: Lolium rigidum (rigid ryegrass, LOLRI); experiment: Field trial, post-emergence % visual weed control, LOLRI; settings: 28DAA, 22.5 g ai/ha
Excerpt: as §1, §2, §9, §10
as §5, with “5%. […]” for “5%.”

[17] = tested on: Avena macrocarpa Moench (wild red oat, AVEST); experiment: Field trial, post-emergence % visual weed control, AVEST; settings: 32DAA, 18.75 g ai/ha
Excerpt: as §1, §2, §9, §10
as §5, with “5%. […]” for “5%.”

[18] = tested on: Papaver rhoeas L. (common poppy, PAPRH); experiment: Field trial, post-emergence % visual weed control, PAPRH; settings: 56DAA, 22.5 g ai/ha
Excerpt: as §1, §2, §9, §10
as §5, with “5%. […]” for “5%.”

Avena sp. (oats, AVESS) = experiment: Field trial, post-emergence % visual weed control, AVESS; settings: 76DAA, 18.75 g ai/ha
Excerpt: as §1, §2, §9, §10
as §5, with “5%. […]” for “5%.”

COC(=O)c1nc(-c2ccc(Cl)c(OC)c2F)cc(N)c1Cl [Halauxifen-Methyl, methyl 4-amino-3-chloro-6-(4-chloro-2-fluoro-3-methoxyphenyl)pyridine-2-carboxylate]
Mean % Weed Control ([1]; 3 g ae/ha): 0.0% | Mean % Weed Control ([1]; 4 g ae/ha): 0.0% | Mean % Weed Control ([2]; 14DAA, 3 g ae/ha): 0.0% | Mean % Weed Control ([2]; 14DAA, 4 g ae/ha): 0.0% | Mean % Weed Control ([2]; 56DAA, 3 g ae/ha): 0.0% | Mean % Weed Control ([3]; 15DAA, 4.8 g ae/ha): 72.5% | Mean % Weed Control ([3]; 15DAA, 6 g ae/ha): 55.0% | Mean % Weed Control ([4]; 15DAA, 4.8 g ae/ha): 0.0% | Mean % Weed Control ([4]; 61DAA, 4.8 g ae/ha): 0.0% | Mean % Weed Control ([4]; 61DAA, 6 g ae/ha): 1.3% and 3.2% | Mean % Weed Control ([4]; 78DAA, 4.8 g ae/ha): 6.3% | Mean % Weed Control ([4]; 78DAA, 6 g ae/ha): 6.3% | Mean % Weed Control ([5]; 15DAA, 4.8 g ae/ha): 0.0% | Mean % Weed Control ([5]; 15DAA, 6 g ae/ha): 0.0% | Mean % Weed Control ([5]; 61DAA, 4.8 g ae/ha): 0.0% | Mean % Weed Control ([5]; 61DAA, 6 g ae/ha): 1.3% and 3.2% | Mean % Weed Control ([5]; 78DAA, 4.8 g ae/ha): 6.3% | Mean % Weed Control ([5]; 78DAA, 6 g ae/ha): 8.8% | Mean % Weed Control ([6]; 28DAA, 3 g ae/ha): 75.0% | Mean % Weed Control ([6]; 77DAA, 3 g ae/ha): 82.5% | Mean % Weed Control ([6]; 84DAA, 3 g ae/ha): 1.3% | Mean % Weed Control ([6]; 84DAA, 4 g ae/ha): 27.5% | Mean % Weed Control ([7]; 3 g ae/ha): 0.0% | Mean % Weed Control ([8]; 29DAA, 3 g ae/ha): 10.0% | Mean % Weed Control ([8]; 56DAA, 3 g ae/ha): 0.0% | Mean % Weed Control ([9]; 31DAA, 3 g ae/ha): 68.3% | Mean % Weed Control ([9]; 31DAA, 4 g ae/ha): 70.8% | Mean % Weed Control ([9]; 53DAA, 3 g ae/ha): 70.0% | Mean % Weed Control ([9]; 53DAA, 4 g ae/ha): 72.0% | Mean % Weed Control ([9]; 84DAA, 3 g ae/ha): 70.0% | Mean % Weed Control ([9]; 84DAA, 4 g ae/ha): 72.5% | Mean % Weed Control ([10]; 3 g ae/ha): 0.0% | Mean % Weed Control ([11]; 4 g ae/ha): 0.0% | Mean % Weed Control ([12]; 14DAA, 3 g ae/ha): 0.0% | Mean % Weed Control ([12]; 14DAA, 4 g ae/ha): 0.0% | Mean % Weed Control ([12]; 28DAA, 3 g ae/ha): 0.0% | Mean % Weed Control ([12]; 28DAA, 4 g ae/ha): 0.0% | Mean % Weed Control ([12]; 56DAA, 3 g ae/ha): 0.0% | Mean % Weed Control ([13]; 14DAA, 3 g ae/ha): 0.0% | Mean % Weed Control ([13]; 29DAA, 3 g ae/ha): 0.0% | Mean % Weed Control ([13]; 56DAA, 3 g ae/ha): 0.0%

COc1cc(OC)n2nc(NS(=O)(=O)c3c(C(F)(F)F)ccnc3OC)nc2n1 [Pyroxsulam, N-(5,7-dimethoxy[1,2,4]triazolo[1,5-a]pyrimidin-2-yl)-2-methoxy-4-(trifluoromethyl)-pyridine-3-sulfonamide]
Mean % Weed Control ([1]; 12 g ai/ha): 20.0% | Mean % Weed Control ([2]; 14DAA, 12 g ai/ha): 61.3% | Mean % Weed Control ([2]; 56DAA, 12 g ai/ha): 93.8% | Mean % Weed Control ([3]; 15DAA, 9.6 g ai/ha): 16.3% | Mean % Weed Control ([3]; 15DAA, 12 g ai/ha): 10.0% | Mean % Weed Control ([3]; 32DAA, 9.6 g ai/ha): 0.0% | Mean % Weed Control ([4]; 15DAA, 9.6 g ai/ha): 12.8% | Mean % Weed Control ([4]; 61DAA, 9.6 g ai/ha): 16.3% and 23.7% | Mean % Weed Control ([4]; 61DAA, 12 g ai/ha): 20.0% and 26.3% | Mean % Weed Control ([4]; 78DAA, 9.6 g ai/ha): 17.0% | Mean % Weed Control ([4]; 78DAA, 12 g ai/ha): 18.8% | Mean % Weed Control ([5]; 15DAA, 9.6 g ai/ha): 0.0% | Mean % Weed Control ([5]; 15DAA, 12 g ai/ha): 0.0% | Mean % Weed Control ([5]; 61DAA, 9.6 g ai/ha): 5.0% and 11.1% | Mean % Weed Control ([5]; 61DAA, 12 g ai/ha): 3.8% and 9.7% | Mean % Weed Control ([5]; 78DAA, 9.6 g ai/ha): 16.3% | Mean % Weed Control ([5]; 78DAA, 12 g ai/ha): 13.8% | Mean % Weed Control ([6]; 28DAA, 12 g ai/ha): 38.8% | Mean % Weed Control ([6]; 77DAA, 12 g ai/ha): 15.0% | Mean % Weed Control ([6]; 84DAA, 12 g ai/ha): 12.5% | Mean % Weed Control ([7]; 12 g ai/ha): 89.5% | Mean % Weed Control ([8]; 29DAA, 18.75 g ai/ha): 50.0% | Mean % Weed Control ([8]; 56DAA, 18.75 g ai/ha): 30.0% | Mean % Weed Control ([9]; 31DAA, 12 g ai/ha): 66.8% | Mean % Weed Control ([9]; 53DAA, 12 g ai/ha): 70.0% | Mean % Weed Control ([9]; 84DAA, 12 g ai/ha): 70% | Mean % Weed Control ([10]; 12 g ai/ha): 37.5% | Mean % Weed Control ([11]; 12 g ai/ha): 27.5% | Mean % Weed Control ([12]; 14DAA, 12 g ai/ha): 72.5% | Mean % Weed Control ([12]; 28DAA, 12 g ai/ha): 88.8% | Mean % Weed Control ([12]; 56DAA, 12 g ai/ha): 94.5% | Mean % Weed Control ([13]; 14DAA, 18.75 g ai/ha): 85.0% | Mean % Weed Control ([13]; 29DAA, 18.75 g ai/ha): 75.0% | Mean % Weed Control ([13]; 56DAA, 18.75 g ai/ha): 60.0% | Mean % Weed Control [14]: 90.0% | Mean % Weed Control ([15]; 28DAA): 72.5% | Mean % Weed Control ([15]; 55DAA): 72.5% | Mean % Weed Control [16]: 72.5% | Mean % Weed Control [17]: 97.8% | Mean % Weed Control [18]: 1.9% | Mean % Weed Control (Avena sp. (oats, AVESS)): 62.0%
